IC50 and EC50 data for four molecules are collected here from ChEMBL document CHEMBL1201862, “PubChem BioAssay data set” (2004).

The target in test [1] is DNA (cytosine-5)-methyltransferase 1 (Homo sapiens, UniProt P26358). The test is described as follows: inhibition of DNA methylation by DNMT1 – biochemical, fluorescent molecular beacon, confirmation (AID 602386). It is filed as functional.
Test [2] has as its target 26S proteasome non-ATPase regulatory subunit 14 (Homo sapiens, UniProt O00487). As to the kind of experiment: inhibition of proteasome subunit RPN11 – biochemical, fluorescence polarization, uHTS hits, confirmation (AID 602368). It is filed as functional.
Test [3] deals with Multidrug resistance protein CDR1 (Candida albicans, UniProt P43071). As to the kind of experiment: inhibition of Nile Red efflux via Candida CDR1 – S. cerevisiae AD1-8u, singleplex, Cherry Pick1 hits, dose response (AID 588606). It is filed as functional.
Chain of Multidrug resistance protein CDR1 (P43071 whole entry, looked up): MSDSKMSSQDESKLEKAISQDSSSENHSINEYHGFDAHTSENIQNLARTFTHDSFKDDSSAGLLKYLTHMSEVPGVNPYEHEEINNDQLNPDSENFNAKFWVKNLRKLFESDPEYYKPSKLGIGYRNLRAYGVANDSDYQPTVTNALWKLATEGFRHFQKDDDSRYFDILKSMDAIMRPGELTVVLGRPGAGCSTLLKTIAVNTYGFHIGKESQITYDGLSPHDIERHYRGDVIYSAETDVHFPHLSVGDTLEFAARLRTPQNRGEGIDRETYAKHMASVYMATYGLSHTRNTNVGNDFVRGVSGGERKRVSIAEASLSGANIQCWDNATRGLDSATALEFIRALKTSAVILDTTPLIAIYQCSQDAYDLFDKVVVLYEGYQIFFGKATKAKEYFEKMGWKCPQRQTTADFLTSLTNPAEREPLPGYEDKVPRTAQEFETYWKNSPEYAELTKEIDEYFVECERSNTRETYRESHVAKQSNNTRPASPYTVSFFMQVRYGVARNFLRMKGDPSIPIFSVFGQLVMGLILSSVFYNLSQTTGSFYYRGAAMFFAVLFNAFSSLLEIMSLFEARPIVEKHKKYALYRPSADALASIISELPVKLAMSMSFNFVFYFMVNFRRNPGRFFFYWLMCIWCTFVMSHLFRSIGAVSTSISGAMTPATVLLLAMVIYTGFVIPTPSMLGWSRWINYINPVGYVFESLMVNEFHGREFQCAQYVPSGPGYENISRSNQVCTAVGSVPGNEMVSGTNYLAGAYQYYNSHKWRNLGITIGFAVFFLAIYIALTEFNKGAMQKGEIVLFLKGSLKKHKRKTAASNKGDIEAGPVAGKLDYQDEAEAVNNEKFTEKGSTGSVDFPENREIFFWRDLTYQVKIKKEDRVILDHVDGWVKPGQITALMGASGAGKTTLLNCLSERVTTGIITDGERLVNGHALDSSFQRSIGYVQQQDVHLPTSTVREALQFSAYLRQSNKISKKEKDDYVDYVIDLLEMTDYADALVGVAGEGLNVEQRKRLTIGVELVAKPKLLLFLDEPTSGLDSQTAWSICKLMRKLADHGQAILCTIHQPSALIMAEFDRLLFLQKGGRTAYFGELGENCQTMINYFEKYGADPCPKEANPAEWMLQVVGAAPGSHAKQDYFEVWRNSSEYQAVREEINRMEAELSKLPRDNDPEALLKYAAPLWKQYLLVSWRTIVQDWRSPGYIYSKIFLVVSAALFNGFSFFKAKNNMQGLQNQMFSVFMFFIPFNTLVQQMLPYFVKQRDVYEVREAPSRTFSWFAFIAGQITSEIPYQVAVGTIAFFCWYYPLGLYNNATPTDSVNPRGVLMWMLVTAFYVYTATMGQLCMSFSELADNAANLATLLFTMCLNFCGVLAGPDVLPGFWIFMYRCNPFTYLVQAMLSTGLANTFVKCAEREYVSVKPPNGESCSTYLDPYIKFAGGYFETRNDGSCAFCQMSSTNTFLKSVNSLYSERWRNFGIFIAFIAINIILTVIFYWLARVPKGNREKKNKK
The target of test [4] is Prothrombin (Bos taurus, UniProt P00735). As to the kind of experiment: thrombin protease inhibitors – biochemical, fluorescence polarization, uHTS hits, dose response (AID 602369). It is filed as functional.
In test [5] the target is T1, Multidrug resistance protein CDR2 (Candida albicans (strain SC5314 / ATCC MYA-2876) (Yeast), UniProt P78595).
T1 sequence (P78595 whole entry): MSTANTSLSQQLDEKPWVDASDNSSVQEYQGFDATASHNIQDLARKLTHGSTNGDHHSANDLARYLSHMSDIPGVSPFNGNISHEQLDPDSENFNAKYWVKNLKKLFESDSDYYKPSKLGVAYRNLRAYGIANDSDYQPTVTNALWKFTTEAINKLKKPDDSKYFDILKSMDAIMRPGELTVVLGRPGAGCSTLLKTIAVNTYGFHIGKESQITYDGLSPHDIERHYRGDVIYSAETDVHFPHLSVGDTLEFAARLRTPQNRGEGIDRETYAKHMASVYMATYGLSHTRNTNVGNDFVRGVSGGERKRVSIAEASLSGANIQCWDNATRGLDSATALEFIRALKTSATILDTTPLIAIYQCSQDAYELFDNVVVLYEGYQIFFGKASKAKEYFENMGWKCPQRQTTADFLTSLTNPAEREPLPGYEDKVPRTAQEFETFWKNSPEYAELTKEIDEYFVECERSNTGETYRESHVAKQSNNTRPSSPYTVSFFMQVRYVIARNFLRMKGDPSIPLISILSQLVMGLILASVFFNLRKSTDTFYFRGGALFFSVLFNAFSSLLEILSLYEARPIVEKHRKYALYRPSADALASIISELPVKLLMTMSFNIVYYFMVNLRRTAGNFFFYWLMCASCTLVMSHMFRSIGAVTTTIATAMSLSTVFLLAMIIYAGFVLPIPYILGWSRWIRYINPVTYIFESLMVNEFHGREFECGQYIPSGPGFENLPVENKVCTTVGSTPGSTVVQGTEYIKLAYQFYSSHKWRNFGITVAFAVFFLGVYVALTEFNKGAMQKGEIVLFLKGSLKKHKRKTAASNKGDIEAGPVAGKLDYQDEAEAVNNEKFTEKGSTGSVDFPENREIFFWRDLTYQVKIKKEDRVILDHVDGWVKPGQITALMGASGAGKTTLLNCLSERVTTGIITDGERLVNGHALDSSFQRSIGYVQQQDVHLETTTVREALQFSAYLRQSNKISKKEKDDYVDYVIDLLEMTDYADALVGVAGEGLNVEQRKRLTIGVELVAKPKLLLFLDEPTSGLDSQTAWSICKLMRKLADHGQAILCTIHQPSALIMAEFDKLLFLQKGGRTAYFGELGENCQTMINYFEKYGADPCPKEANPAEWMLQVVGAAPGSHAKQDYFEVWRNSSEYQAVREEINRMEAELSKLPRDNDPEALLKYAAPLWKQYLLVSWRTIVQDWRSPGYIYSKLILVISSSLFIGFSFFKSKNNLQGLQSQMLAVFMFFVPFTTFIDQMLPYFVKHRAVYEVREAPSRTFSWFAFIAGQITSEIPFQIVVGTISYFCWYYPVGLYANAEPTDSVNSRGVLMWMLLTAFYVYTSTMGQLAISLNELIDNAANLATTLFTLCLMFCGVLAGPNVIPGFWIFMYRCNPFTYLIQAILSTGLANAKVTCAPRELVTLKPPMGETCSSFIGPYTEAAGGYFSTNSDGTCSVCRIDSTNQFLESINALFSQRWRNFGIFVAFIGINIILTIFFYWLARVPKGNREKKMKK
The test is described as follows: inhibition of Nile Red efflux via Candida CDR2 – S. cerevisiae AD1-8u, singleplex, Cherry Pick1 hits, dose response (AID 588604). It is filed as functional.

Test [6] has as its target Genome polyprotein (dengue virus type 2, UniProt P29990). The test is described as follows: flavivirus cap methylation enzyme inhibition – biochemical, confirmation dose response, primary screen (AID 588689). It is filed as functional.
Test [7] addresses 72 kDa type IV collagenase (Homo sapiens, UniProt P08253). As to the kind of experiment: Dose Response validation of uHTS RPN11 inhibitor hits using a MMP-2 Fluorescence assay. It is filed as functional.
In test [8] the target is T2, RNA-binding protein pos-1 (Caenorhabditis elegans, UniProt G5EF15).
T2 sequence (G5EF15 whole entry): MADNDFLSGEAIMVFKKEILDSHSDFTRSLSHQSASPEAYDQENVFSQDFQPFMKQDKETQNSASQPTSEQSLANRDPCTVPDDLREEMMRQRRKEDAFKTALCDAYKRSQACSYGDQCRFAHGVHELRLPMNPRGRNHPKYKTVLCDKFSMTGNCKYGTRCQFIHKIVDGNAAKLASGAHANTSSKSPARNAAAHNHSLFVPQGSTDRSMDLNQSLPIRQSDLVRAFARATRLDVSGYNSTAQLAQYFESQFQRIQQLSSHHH
As to the kind of experiment: disruptors of C. elegans POS-1 RNA interaction – biochemical, fluorescence polarization, dose response (AID 1964).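 Further: purified POS-1 fused to maltose binding protein made in E. coli; potency of compounds blocking POS-1 binding to fluorescent RNA.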

For test [9], the target named is T3, Rac GTPase-activating protein 1 (Homo sapiens, UniProt Q9H0H5).
T3 sequence (Q9H0H5 whole entry): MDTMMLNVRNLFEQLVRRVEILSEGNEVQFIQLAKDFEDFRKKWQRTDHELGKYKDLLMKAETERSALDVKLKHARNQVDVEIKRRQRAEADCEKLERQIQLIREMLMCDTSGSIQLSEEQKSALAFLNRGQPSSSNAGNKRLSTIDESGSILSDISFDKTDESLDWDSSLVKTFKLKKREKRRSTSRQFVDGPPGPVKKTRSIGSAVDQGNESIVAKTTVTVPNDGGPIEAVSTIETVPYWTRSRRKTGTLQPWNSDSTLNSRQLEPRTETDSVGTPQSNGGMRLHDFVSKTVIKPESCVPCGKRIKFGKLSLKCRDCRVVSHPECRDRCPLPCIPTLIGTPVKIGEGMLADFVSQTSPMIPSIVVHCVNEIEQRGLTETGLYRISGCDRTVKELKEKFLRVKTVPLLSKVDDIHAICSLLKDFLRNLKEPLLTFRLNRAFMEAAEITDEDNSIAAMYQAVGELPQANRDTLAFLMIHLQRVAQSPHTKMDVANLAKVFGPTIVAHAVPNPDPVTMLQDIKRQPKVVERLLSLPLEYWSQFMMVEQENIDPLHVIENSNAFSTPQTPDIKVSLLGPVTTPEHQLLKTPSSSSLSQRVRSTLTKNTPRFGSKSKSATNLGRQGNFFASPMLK
As to the kind of experiment: blockers of MgcRacGAP-driven Rac1 GTP hydrolysis – biochemical, ADP Hunter fluorescence, primary and confirmatory, confirmation (AID 624330). In kind it is functional.

The target in test [10] is Benomyl/methotrexate resistance protein (Candida albicans, UniProt P28873). As to the kind of experiment: Candida albicans Mdr1 pump inhibition curves – singleplex, Cherry Pick1 hits, dose response (AID 588608). It is filed as functional.
Chain of Benomyl/methotrexate resistance protein (P28873 whole entry): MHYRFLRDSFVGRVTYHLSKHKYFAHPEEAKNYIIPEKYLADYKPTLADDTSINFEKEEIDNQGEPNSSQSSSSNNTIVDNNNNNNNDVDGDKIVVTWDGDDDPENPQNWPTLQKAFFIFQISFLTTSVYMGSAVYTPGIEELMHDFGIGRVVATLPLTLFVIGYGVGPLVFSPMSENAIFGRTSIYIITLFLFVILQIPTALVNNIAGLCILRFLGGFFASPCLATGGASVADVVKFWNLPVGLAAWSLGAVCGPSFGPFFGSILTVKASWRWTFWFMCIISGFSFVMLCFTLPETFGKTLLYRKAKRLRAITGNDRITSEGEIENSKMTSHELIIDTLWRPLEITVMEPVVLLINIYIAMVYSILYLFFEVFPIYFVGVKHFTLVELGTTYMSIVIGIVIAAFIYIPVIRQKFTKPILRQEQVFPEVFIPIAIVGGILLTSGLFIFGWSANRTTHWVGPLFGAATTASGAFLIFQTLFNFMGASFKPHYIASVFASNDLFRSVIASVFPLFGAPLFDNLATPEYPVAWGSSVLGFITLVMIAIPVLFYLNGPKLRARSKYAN
For test [11], the target named is T4, Zinc finger protein mex-5 (Caenorhabditis elegans, UniProt Q9XUB2).
T4 sequence (Q9XUB2 whole entry): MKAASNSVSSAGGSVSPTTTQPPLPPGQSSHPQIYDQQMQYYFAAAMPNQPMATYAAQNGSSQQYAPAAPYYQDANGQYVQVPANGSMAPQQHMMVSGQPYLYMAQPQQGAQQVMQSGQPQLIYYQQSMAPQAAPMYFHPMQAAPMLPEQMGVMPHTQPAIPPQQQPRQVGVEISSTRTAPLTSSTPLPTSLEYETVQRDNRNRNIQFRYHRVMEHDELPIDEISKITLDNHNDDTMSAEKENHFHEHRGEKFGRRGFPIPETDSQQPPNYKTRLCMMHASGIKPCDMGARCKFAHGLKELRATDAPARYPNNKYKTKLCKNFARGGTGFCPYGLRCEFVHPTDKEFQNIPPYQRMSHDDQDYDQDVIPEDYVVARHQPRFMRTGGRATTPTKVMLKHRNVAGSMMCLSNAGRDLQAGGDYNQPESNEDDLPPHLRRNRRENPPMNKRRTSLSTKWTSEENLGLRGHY
The test is described as follows: potency of MEX-5 RNA-binding blockers – biochemical, C. elegans, fluorescence polarization, dose response (AID 1960).

Test [12] deals with T5, High affinity choline transporter 1 (Homo sapiens, UniProt Q9GZV3).
T5 sequence (Q9GZV3 whole entry): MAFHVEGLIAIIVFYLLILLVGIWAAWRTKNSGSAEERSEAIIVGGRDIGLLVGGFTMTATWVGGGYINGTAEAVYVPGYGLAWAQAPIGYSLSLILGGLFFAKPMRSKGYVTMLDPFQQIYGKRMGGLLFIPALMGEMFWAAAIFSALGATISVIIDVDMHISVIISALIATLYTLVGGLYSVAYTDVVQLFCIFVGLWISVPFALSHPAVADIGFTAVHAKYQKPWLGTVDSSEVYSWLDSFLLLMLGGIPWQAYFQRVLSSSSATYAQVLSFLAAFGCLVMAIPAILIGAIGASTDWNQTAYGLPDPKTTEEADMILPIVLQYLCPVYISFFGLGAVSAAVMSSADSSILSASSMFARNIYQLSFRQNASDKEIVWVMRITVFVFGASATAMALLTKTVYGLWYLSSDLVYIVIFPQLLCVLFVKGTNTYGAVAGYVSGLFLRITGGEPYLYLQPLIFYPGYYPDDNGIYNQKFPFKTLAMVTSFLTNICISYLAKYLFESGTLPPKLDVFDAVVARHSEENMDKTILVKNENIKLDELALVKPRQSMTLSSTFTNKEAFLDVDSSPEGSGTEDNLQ
The test is described as follows: human choline transporter blockers, potency – cell-based, 5-point CRC, membrane potential dye, dose response (AID 504840). It is filed as functional.

Test [13] addresses T5, High affinity choline transporter 1. The test is described as follows: human choline transporter blockers, potency – cell-based, 10-point CRC, membrane potential dye, dose response (AID 588401).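 Further: membrane potential dye fluorescence of choline-evoked depolarization via CHT.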 In kind it is functional.
In test [14] the target is T6, Apoptotic protease-activating factor 1 (Homo sapiens, UniProt O14727).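 Further: caspase-3 cleavage of fluorogenic Rh110 DEVD substrate downstream of apoptosome activation.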
T6 sequence (O14727 whole entry): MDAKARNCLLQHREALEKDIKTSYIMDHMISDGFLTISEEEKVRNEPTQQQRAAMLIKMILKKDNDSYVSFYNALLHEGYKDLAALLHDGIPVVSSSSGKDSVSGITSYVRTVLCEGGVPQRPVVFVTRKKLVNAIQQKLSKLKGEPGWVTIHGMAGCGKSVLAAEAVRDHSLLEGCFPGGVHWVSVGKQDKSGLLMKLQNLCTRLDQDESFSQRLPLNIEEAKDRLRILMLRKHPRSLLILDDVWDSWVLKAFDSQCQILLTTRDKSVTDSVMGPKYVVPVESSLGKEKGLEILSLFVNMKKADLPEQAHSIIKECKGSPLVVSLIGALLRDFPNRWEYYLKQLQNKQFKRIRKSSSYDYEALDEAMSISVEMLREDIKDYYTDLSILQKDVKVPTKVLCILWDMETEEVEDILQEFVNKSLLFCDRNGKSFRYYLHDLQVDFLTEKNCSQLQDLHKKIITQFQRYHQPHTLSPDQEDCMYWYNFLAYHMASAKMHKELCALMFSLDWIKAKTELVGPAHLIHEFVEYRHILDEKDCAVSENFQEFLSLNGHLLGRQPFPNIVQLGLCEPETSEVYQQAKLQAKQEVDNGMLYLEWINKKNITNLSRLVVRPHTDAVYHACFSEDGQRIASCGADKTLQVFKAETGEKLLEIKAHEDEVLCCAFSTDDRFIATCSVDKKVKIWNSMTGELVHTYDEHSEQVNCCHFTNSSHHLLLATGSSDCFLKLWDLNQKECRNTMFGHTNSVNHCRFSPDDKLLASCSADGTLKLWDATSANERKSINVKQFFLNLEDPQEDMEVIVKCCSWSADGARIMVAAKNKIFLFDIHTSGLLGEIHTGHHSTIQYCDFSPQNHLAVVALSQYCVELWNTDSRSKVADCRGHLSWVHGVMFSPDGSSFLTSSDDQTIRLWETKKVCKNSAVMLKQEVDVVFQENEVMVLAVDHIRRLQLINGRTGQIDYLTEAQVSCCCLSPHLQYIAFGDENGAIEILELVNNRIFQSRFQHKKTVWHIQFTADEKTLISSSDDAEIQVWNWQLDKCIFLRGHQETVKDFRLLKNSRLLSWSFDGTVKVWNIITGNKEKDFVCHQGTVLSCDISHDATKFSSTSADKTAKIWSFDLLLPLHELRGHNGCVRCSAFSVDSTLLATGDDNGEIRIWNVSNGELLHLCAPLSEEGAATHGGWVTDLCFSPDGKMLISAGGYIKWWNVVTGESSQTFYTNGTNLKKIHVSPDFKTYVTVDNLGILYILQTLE
As to the kind of experiment: SAR analysis of small molecule Activators of Apaf-1 in a Fluorescent assay. It is filed as functional. The note with it: read-out: EC50_Mean.

Activity calls are given as the source filed them.

Chain of 26S proteasome non-ATPase regulatory subunit 14 (O00487 whole entry): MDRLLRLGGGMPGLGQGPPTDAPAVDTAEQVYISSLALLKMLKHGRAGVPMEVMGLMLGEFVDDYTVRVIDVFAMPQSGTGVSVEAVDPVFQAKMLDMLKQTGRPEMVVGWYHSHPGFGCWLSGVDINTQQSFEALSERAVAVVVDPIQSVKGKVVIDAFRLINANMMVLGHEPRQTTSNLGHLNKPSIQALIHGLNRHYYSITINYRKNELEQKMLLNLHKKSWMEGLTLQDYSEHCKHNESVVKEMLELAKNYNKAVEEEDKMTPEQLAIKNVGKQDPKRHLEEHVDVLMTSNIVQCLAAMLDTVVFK
Chain of DNA (cytosine-5)-methyltransferase 1 (P26358 whole entry): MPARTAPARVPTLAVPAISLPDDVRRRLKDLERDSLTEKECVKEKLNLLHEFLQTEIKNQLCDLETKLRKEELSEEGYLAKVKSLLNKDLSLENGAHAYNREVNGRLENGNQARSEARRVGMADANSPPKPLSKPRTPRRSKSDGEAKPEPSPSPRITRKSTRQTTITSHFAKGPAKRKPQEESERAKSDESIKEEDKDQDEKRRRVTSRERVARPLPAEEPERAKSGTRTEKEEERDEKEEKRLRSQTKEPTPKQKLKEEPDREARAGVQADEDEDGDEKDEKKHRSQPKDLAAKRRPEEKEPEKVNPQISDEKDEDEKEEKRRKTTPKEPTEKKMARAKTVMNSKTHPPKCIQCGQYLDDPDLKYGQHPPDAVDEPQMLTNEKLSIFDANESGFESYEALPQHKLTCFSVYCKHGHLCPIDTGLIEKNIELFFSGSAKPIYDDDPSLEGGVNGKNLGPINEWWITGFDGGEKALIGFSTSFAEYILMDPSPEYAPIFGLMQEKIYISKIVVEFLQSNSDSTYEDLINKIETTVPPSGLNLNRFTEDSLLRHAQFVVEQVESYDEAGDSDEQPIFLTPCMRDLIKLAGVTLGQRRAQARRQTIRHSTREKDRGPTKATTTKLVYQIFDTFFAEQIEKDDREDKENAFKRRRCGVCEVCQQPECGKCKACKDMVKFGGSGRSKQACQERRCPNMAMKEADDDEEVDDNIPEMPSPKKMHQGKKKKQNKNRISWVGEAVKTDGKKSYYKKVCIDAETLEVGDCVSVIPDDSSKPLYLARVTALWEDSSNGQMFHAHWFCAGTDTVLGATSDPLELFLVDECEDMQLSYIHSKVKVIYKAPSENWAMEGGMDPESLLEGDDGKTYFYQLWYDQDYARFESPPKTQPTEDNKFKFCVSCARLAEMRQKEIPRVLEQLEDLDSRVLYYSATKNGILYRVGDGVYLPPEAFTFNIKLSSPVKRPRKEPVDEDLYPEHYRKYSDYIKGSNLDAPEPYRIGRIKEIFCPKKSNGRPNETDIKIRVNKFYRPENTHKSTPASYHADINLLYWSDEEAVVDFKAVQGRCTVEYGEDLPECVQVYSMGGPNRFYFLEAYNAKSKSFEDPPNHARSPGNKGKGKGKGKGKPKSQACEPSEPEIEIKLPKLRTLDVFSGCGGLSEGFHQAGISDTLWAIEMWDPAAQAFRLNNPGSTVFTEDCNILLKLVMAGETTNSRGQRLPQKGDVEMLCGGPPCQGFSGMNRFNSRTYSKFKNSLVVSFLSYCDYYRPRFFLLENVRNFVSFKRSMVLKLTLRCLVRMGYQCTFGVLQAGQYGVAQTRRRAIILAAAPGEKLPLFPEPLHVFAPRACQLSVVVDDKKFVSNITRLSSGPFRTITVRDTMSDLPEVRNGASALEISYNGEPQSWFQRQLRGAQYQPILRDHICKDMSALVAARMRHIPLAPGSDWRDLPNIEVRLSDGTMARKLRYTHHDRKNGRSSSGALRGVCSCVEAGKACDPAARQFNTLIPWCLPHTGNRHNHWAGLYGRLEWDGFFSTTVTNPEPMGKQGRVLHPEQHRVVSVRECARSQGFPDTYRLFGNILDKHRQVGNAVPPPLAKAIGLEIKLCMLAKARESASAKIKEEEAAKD
Chain of Genome polyprotein (P29990 2492-3391 limits assumed): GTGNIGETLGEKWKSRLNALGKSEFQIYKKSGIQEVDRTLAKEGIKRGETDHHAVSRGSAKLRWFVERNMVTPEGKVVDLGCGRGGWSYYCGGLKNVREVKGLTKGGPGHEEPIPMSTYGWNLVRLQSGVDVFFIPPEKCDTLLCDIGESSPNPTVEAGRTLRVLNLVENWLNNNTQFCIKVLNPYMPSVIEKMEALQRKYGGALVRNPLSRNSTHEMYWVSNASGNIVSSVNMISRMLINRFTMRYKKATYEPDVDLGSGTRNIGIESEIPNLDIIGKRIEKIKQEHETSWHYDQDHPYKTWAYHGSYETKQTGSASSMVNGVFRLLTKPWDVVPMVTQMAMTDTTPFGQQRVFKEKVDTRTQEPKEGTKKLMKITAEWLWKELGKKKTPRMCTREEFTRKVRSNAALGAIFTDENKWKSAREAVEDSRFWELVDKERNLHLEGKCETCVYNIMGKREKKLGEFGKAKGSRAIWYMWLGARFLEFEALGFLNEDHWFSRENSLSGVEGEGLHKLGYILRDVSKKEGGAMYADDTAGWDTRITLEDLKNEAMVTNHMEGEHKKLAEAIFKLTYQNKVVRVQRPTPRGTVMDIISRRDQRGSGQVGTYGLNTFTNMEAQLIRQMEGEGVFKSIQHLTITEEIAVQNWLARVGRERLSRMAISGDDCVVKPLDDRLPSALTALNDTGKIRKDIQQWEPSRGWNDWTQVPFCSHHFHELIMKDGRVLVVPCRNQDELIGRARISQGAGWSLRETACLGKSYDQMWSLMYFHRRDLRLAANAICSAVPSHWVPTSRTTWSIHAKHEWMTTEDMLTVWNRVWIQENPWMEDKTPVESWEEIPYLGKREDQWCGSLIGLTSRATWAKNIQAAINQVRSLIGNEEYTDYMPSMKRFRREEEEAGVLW

For the molecule `O=C(O)CCN1C(=O)/C(=C/c2ccc(-c3nc4ccccc4s3)o2)SC1=S`, the IC50 is 4.66 µM (active) in test [1]; 2.93 µM (active) in test [2]; 5.11 µM (active) in test [4]; > 100 µM (active) in [6]; > 100 µM (inactive) in test [7]; 30.6 µM (active) in test [9]. Also, the EC50 was 11.2 µM (active) in test [3]; 12.1 µM (active) in test [5]; 32.3 µM (active) in [8]; 102 nM (active) in test [10]; 21.8 µM (active) in [11].
Take `CCc1cc(C(=O)Cc2ccc(F)cc2)c(O)cc1O`: the IC50 in test [12] is 8.38 µM (active); in test [13] it was 4.47 µM (active).
On to `COc1ccc(C(=O)NCc2cnn(C)c2C)cc1OC1CCN(C(C)C)CC1`, for which the figures for the IC50 in test [12] and in test [13] were 4.47 µM (active) and 2.38 µM (active), respectively.
Regarding `COc1ccc(Cl)cc1NC(=O)CCS(=O)(=O)c1cc2c(cc1Br)CCN2C(C)=O`, the EC50 in [14] is > 100 µM (inactive).
